Experiments:
Type in all cases: in vivo
[1] = system: ivyleaf morningglory (Ipomoea hederacea); test: Test Example 1: foliar treatment of field; conditions: foliar spray, dosage 125 g/ha, 16 days after application
Protocol: (§1) A cylindrical plastic pot having a diameter of 10 cm and a depth of 10 cm was filled with soil and then seeded with ivyleaf morningglory (Ipomoea hederacea) and velvetleaf (Abutilon theophrasti). These test plants were grown in a greenhouse for 10 days. Then, each of compounds 1-2, 1-42, 1-45, 1-48, 2-2, 2-7, 2-42, 2-45, 3-2, 3-12, 4-7, 4-85, 5-12-R, 5-12-S, 5-17, 6-2, 7-2, 7-6, 7-8, 7-12, 7-48, 7-50, 7-84, 7-118, 7-119, 7-125, 9-7, 9-27 and 9-45 was formulated into an emulsifiable concentrate according to Formulation Example 2 and then diluted to the prescribed amount with water containing a spreading agent and the dilution was uniformly sprayed over the foliage of the test plants with a sprayer at a rate of 1000 liters per hectare. After the application, the test plants were grown in the greenhouse for 16 days, and the herbicidal activity was determined.

[2] = system: velvetleaf (Abutilon theophrasti); test: Test Example 1: foliar treatment of field; conditions: foliar spray, dosage 125 g/ha, 16 days after application
Protocol: as §1

[3] = system: ivyleaf morningglory (Ipomoea hederacea); test: Test Example 2: soil surface treatment of field; conditions: soil surface spray, dosage 500 g/ha, 19 days after application
Text: (§2) A cylindrical plastic pot having a diameter of 10 cm and a depth of 10 cm was filled with soil and then seeded with ivyleaf morningglory (Ipomoea hederacea) and velvetleaf (Abutilon theophrasti). Then, each of the compounds 1-2, 1-42, 1-48, 2-2, 2-7, 2-42, 2-45, 3-2, 3-12, 4-7, 4-85, 5-12-R, 5-12-S, 5-17, 6-2, 7-2, 7-6, 7-8, 7-12, 7-48, 7-50, 7-84, 7-118, 7-119, 7-125, 9-7, 9-27 and 9-45 was formulated into an emulsifiable concentrate according to Formulation Example 2 and then diluted to the prescribed amount with water, and the dilution was uniformly sprayed over the surface of the soil with a sprayer at a rate of 1000 liters per hectare. After the application, the test plants were grown in the greenhouse for 19 days, and the herbicidal activity was examined.

[4] = system: velvetleaf (Abutilon theophrasti); test: Test Example 2: soil surface treatment of field; conditions: soil surface spray, dosage 500 g/ha, 19 days after application
Text: as §2

CC(C)=NOC(=O)COc1ncccc1Oc1cc(-n2c(=O)cc(C(F)(F)F)n(C)c2=O)c(F)cc1Cl [Compound 7-118, 3-{2-chloro-4-fluoro-5-[3-methyl-2,6-dioxo-4-(trifluoromethyl)-1,2,3,6-tetrahydropyrimidin-1-yl]phenoxy}-2-isopropylidenaminoxycarbonylmethoxypyridine]
completely controlled: growth of ivyleaf morningglory (herbicidal activity) [1] | growth of velvetleaf (herbicidal activity) [2] | growth of ivyleaf morningglory (herbicidal activity) [3] | growth of velvetleaf (herbicidal activity) [4]

Cn1c(C(F)(F)F)cc(=O)n(-c2cc(Oc3cccnc3OCC(=O)O)c(Cl)cc2F)c1=O [Compound 7-6, 3-{2-chloro-4-fluoro-5-[3-methyl-2,6-dioxo-4-(trifluoromethyl)-1,2,3,6-tetrahydropyrimidin-1-yl]phenoxy}-2-carboxymethoxypyridine]
completely controlled: growth of ivyleaf morningglory (herbicidal activity) [1] | growth of velvetleaf (herbicidal activity) [2] | growth of ivyleaf morningglory (herbicidal activity) [3] | growth of velvetleaf (herbicidal activity) [4]

CCOC(=O)COc1ncccc1Oc1cc(-n2c(=O)cc(C(F)(F)F)n(C)c2=O)c(F)cc1Cl [Compound 7-8, 3-{2-chloro-4-fluoro-5-[3-methyl-2,6-dioxo-4-(trifluoromethyl)-1,2,3,6-tetrahydropyrimidin-1-yl]phenoxy}-2-(ethoxycarbonyl)methoxypyridine]
completely controlled: growth of ivyleaf morningglory (herbicidal activity) [1] | growth of velvetleaf (herbicidal activity) [2] | growth of ivyleaf morningglory (herbicidal activity) [3] | growth of velvetleaf (herbicidal activity) [4]

CCCOC(=O)COc1ncccc1Oc1cc(-n2c(=O)cc(C(F)(F)F)n(C)c2=O)c(F)cc1Cl [Compound 7-48, 3-{2-chloro-4-fluoro-5-[3-methyl-2,6-dioxo-4-(trifluoromethyl)-1,2,3,6-tetrahydropyrimidin-1-yl]phenoxy}-2-(n-propoxycarbonyl)methoxypyridine]
completely controlled: growth of ivyleaf morningglory (herbicidal activity) [1] | growth of velvetleaf (herbicidal activity) [2] | growth of ivyleaf morningglory (herbicidal activity) [3] | growth of velvetleaf (herbicidal activity) [4]

COC(=O)COc1n[nH]c(C)c1Oc1cc(-n2c(=O)cc(C(F)(F)F)n(C)c2=O)c(F)cc1Cl [Compound 5-17, 3-(methoxycarbonyl)methoxy-4-{2-chloro-4-fluoro-5-[3-methyl-2,6-dioxo-4-(trifluoromethyl)-1,2,3,6-tetrahydropyrimidin-1-yl]phenoxy}-5-methylpyrazole]
completely controlled: growth of ivyleaf morningglory (herbicidal activity) [1] | growth of velvetleaf (herbicidal activity) [2] | growth of ivyleaf morningglory (herbicidal activity) [3] | growth of velvetleaf (herbicidal activity) [4]

COC(=O)[C@H](C)Oc1n[nH]c(C)c1Oc1cc(-n2c(=O)cc(C(F)(F)F)n(C)c2=O)c(F)cc1Cl [Compound 5-12-S, (S)-3-{1-(methoxycarbonyl)ethoxy}-4-{2-chloro-4-fluoro-5-[3-methyl-2,6-dioxo-4-(trifluoromethyl)-1,2,3,6-tetrahydropyrimidin-1-yl]phenoxy}-5-methylpyrazole]
completely controlled: growth of ivyleaf morningglory (herbicidal activity) [1] | growth of velvetleaf (herbicidal activity) [2] | growth of ivyleaf morningglory (herbicidal activity) [3] | growth of velvetleaf (herbicidal activity) [4]

Cn1c(C(F)(F)F)cc(=O)n(-c2cc(Oc3cccnc3OCC(=O)OC3CCCC3)c(Cl)cc2F)c1=O [Compound 7-125, 3-{2-chloro-4-fluoro-5-[3-methyl-2,6-dioxo-4-(trifluoromethyl)-1,2,3,6-tetrahydropyrimidin-1-yl]phenoxy}-2-(c-pentyloxycarbonyl)methoxypyridine]
completely controlled: growth of ivyleaf morningglory (herbicidal activity) [1] | growth of velvetleaf (herbicidal activity) [2] | growth of ivyleaf morningglory (herbicidal activity) [3] | growth of velvetleaf (herbicidal activity) [4]

COC(=O)COc1nc(C)ncc1Oc1cc(-n2c(=O)cc(C(F)(F)F)n(C)c2=O)c(F)cc1Cl [Compound 4-85, 5-{2-chloro-4-fluoro-5-[3-methyl-2,6-dioxo-4-(trifluoromethyl)-1,2,3,6-tetrahydropyrimidin-1-yl]phenoxy}-4-(methoxycarbonyl)methoxy-2-methylpyrimidine]
completely controlled: growth of ivyleaf morningglory (herbicidal activity) [1] | growth of velvetleaf (herbicidal activity) [2] | growth of ivyleaf morningglory (herbicidal activity) [3] | growth of velvetleaf (herbicidal activity) [4]

COC(=O)COc1cccnc1Oc1cc(-n2c(=O)cc(C(F)(F)F)n(C)c2=O)c(F)cc1Cl [Compound 2-7, 2-{2-chloro-4-fluoro-5-[3-methyl-2,6-dioxo-4-(trifluoromethyl)-1,2,3,6-tetrahydropyrimidin-1-yl]phenoxy}-3-(methoxycarbonyl)methoxypyridine]
completely controlled: growth of ivyleaf morningglory (herbicidal activity) [1] | growth of velvetleaf (herbicidal activity) [2] | growth of ivyleaf morningglory (herbicidal activity) [3] | growth of velvetleaf (herbicidal activity) [4]

CONC(=O)COc1ncccc1Oc1cc(-n2c(=O)cc(C(F)(F)F)n(C)c2=O)c(F)cc1Cl [Compound 7-84, 3-{2-chloro-4-fluoro-5-[3-methyl-2,6-dioxo-4-(trifluoromethyl)-1,2,3,6-tetrahydropyrimidin-1-yl]phenoxy}-2-[(methoxyaminocarbonyl)methoxy]pyridine]
completely controlled: growth of ivyleaf morningglory (herbicidal activity) [1] | growth of velvetleaf (herbicidal activity) [2] | growth of ivyleaf morningglory (herbicidal activity) [3] | growth of velvetleaf (herbicidal activity) [4]

CCCCCOC(=O)COc1ncccc1Oc1cc(-n2c(=O)cc(C(F)(F)F)n(C)c2=O)c(F)cc1Cl [Compound 7-50, 3-{2-chloro-4-fluoro-5-[3-methyl-2,6-dioxo-4-(trifluoromethyl)-1,2,3,6-tetrahydropyrimidin-1-yl]phenoxy}-2-(n-pentyloxycarbonyl)methoxypyridine]
completely controlled: growth of ivyleaf morningglory (herbicidal activity) [1] | growth of velvetleaf (herbicidal activity) [2] | growth of ivyleaf morningglory (herbicidal activity) [3] | growth of velvetleaf (herbicidal activity) [4]
